Values joined by “and” are separate entries in the source; they are usually repeats but may differ in a detail not shown here. Equal values may be shown once. Inconclusive results and toxic doses are left out.

We go through 13 compounds from PubChem BioAssay AID286 (DTP/NCI, 2004).

For this assay, the system named is BDF1 mice, M5076 sarcoma ip, median survival T/C. Kind of assay: NCI In Vivo Anticancer Drug Screen. Data for tumor model Sarcoma M5076 (intraperitoneal) in B6D2F1 (BDF1) mice. The settings on record: endpoint: median survival time, higher = longer survival. On the procedure: The antitumor activity of compounds was measured in mice bearing transplantable tumors. Survival or tumor size were measured and the results are expressed as the measurement made in the treated group (T) divided by the measurement made in the vehicle treated control group (C). The tumor model used in this assay is Sarcoma M5076 (intraperitoneal) in B6D2F1 (BDF1) mice

Where [1] appears, read: dose: 0.5 mg/kg/injection, schedule: Q04DX005 (ip), vehicle: saline.
Where [2] appears, read: dose: 1.0 mg/kg/injection, schedule: Q04DX005 (ip), vehicle: saline.
[3] abbreviates: dose: 100.0 mg/kg/injection, schedule: Q04DX004 (ip), vehicle: saline with Tween-80.
Where [4] appears, read: dose: 200.0 mg/kg/injection, schedule: Q04DX004 (ip), vehicle: saline with Tween-80.
Setting [5] is: dose: 400.0 mg/kg/injection, schedule: Q04DX004 (ip), vehicle: saline with Tween-80.

As for `CC1CCC(NC(=O)N(CCCl)N=O)CC1` (stereo unspecified), the T/C was 216 % of control and 163 % of control (dose: 3.0 mg/kg/injection, schedule: Q04DX004 (ip), vehicle: Klucel (hydroxypropylcellulose) (HPC)); 189 % of control and 193 % of control and 216 % of control (dose: 6.0 mg/kg/injection, schedule: Q04DX004 (ip), vehicle: Klucel (hydroxypropylcellulose) (HPC)); 216 % of control and 233 % of control and 320 % of control (dose: 12.0 mg/kg/injection, schedule: Q04DX004 (ip), vehicle: Klucel (hydroxypropylcellulose) (HPC)).

As for `COc1cc2c(cc1OC)C1C(=O)c3ccc4c(c3OC1CO2)CC(C(C)(O)CO)O4` (stereo unspecified), the T/C (dose: 2.0 mg/kg/injection, schedule: Q01DX009 (ip), vehicle: DMSO) was 110 % of control; the T/C (dose: 4.0 mg/kg/injection, schedule: Q01DX009 (ip), vehicle: DMSO) is 96 % of control; the T/C (dose: 8.0 mg/kg/injection, schedule: Q01DX009 (ip), vehicle: DMSO) was 99 % of control.

Regarding `COc1cccc2c1C(=O)c1c(O)c3c(c(O)c1C2=O)C[C@@](O)(C(=O)CO)C[C@@H]3OC1CC(N)C(O)C(C)O1` (stereo partly specified), the T/C is 196 % of control under setting [1]; 204 % of control (dose: 0.75 mg/kg/injection, schedule: Q04DX005 (ip), vehicle: saline); 197 % of control under setting [2]; 171 % of control (dose: 1.5 mg/kg/injection, schedule: Q01DX007 (ip), vehicle: saline); 277 % of control (dose: 1.5 mg/kg/injection, schedule: Q04DX005 (ip), vehicle: saline); 160 % of control (dose: 2.0 mg/kg/injection, schedule: Q04DX004 (ip), vehicle: saline). Also, the T/C by setting is: (dose: 2.0 mg/kg/injection, schedule: Q04DX005 (ip), vehicle: saline) 401 % of control; (dose: 2.1 mg/kg/injection, schedule: Q01DX007 (ip), vehicle: saline) 176 % of control; (dose: 3.0 mg/kg/injection, schedule: Q01DX007 (ip), vehicle: saline) 216 % of control; (dose: 3.0 mg/kg/injection, schedule: Q04DX005 (ip), vehicle: saline) 308 % of control; (dose: 3.4 mg/kg/injection, schedule: Q04DX003 (ip), vehicle: saline) 152 % of control; (dose: 4.0 mg/kg/injection, schedule: Q04DX004 (ip), vehicle: saline) 190 % of control. For the same compound, the T/C was 208 % of control (dose: 4.0 mg/kg/injection, schedule: Q04DX005 (ip), vehicle: saline); 176 % of control (dose: 5.0 mg/kg/injection, schedule: Q04DX003 (ip), vehicle: saline); 308 % of control (dose: 6.0 mg/kg/injection, schedule: Q04DX005 (ip), vehicle: saline); 159 % of control (dose: 7.0 mg/kg/injection, schedule: Q01DX001 (ip), vehicle: saline); 120 % of control (dose: 7.5 mg/kg/injection, schedule: Q04DX003 (ip), vehicle: saline); 190 % of control (dose: 8.0 mg/kg/injection, schedule: Q04DX004 (ip), vehicle: saline). Further, the T/C runs as follows: (dose: 10.0 mg/kg/injection, schedule: Q01DX001 (ip), vehicle: saline) 159 % of control; (dose: 15.0 mg/kg/injection, schedule: Q01DX001 (ip), vehicle: saline) 185 % of control.

Regarding `Nc1nncs1`, the T/C under setting [3] is 113 % of control; the T/C (dose: 100.0 mg/kg/injection, schedule: Q04DX004 (ip), vehicle: saline) was 112 % of control and 116 % of control and 121 % of control; the T/C (dose: 100.0 mg/kg/injection, schedule: Q04DX005 (ip), vehicle: saline with Tween-80) is 112 % of control; the T/C (dose: 100.0 mg/kg/injection, schedule: Q04DX005 (ip), vehicle: saline) is 119 % of control; the T/C under setting [4] was 116 % of control; the T/C (dose: 200.0 mg/kg/injection, schedule: Q04DX004 (ip), vehicle: saline) was 112 % of control and 124 % of control. Besides, the T/C by setting is: (dose: 200.0 mg/kg/injection, schedule: Q04DX005 (ip), vehicle: saline with Tween-80) 121 % of control; (dose: 200.0 mg/kg/injection, schedule: Q04DX005 (ip), vehicle: saline) 116 % of control and 124 % of control; under setting [5], 119 % of control; (dose: 400.0 mg/kg/injection, schedule: Q04DX004 (ip), vehicle: saline) 110 % of control; (dose: 400.0 mg/kg/injection, schedule: Q04DX005 (ip), vehicle: saline) 109 % of control; (dose: 800.0 mg/kg/injection, schedule: Q04DX004 (ip), vehicle: saline with Tween-80) 124 % of control. For the same compound, the T/C (dose: 800.0 mg/kg/injection, schedule: Q04DX004 (ip), vehicle: saline) is 106 % of control and the T/C (dose: 800.0 mg/kg/injection, schedule: Q04DX005 (ip), vehicle: saline) was 151 % of control.

`CC(=O)N(C)c1ccc(Nc2cc(C)[nH]c3ccc4ncnc4c23)cc1`: for the setting “dose: 5.0 mg/kg/injection, schedule: Q04DX004 (ip), vehicle: saline”, the T/C is 96 % of control.

Consider `Cc1ccc2c(c1)n([O-])c1cc(Cl)ccc1[n+]2=O`, for which the T/C is 109 % of control (dose: 25.0 mg/kg/injection, schedule: Q04DX004 (ip), vehicle: saline with Tween-80); 112 % of control (dose: 50.0 mg/kg/injection, schedule: Q04DX004 (ip), vehicle: saline with Tween-80); 110 % of control under setting [3]; 110 % of control under setting [4]; 115 % of control under setting [5].

For `C=CCOc1cc2c(cc1C(C)c1ccc(OC)cc1)OCO2` (stereo unspecified), the T/C was 104 % of control (dose: 25.0 mg/kg/injection, schedule: Q04DX004 (ip), vehicle: Klucel (hydroxypropylcellulose) (HPC)); 118 % of control (dose: 50.0 mg/kg/injection, schedule: Q04DX004 (ip), vehicle: Klucel (hydroxypropylcellulose) (HPC)); 102 % of control (dose: 100.0 mg/kg/injection, schedule: Q04DX004 (ip), vehicle: Klucel (hydroxypropylcellulose) (HPC)); 118 % of control (dose: 200.0 mg/kg/injection, schedule: Q04DX004 (ip), vehicle: Klucel (hydroxypropylcellulose) (HPC)); 214 % of control (dose: 400.0 mg/kg/injection, schedule: Q04DX004 (ip), vehicle: Klucel (hydroxypropylcellulose) (HPC)).

On to `CCC(C)C(N)C(=O)NC(CC(N)=O)C(=O)NC(CC(C)C)C(=O)NC(CCCCN)C(=O)NC(C)C(=O)NC(CC(C)C)C(=O)NC(C)C(=O)NC(C)C(=O)NC(CC(C)C)C(=O)NC(C)C(=O)NC(CCCCN)C(=O)NC(CCCCN)C(=O)NC(C(=O)NC(CC(C)C)C(N)=O)C(C)CC` (stereo unspecified), for which the T/C reads like this: (dose: 1.56 mg/kg/injection, schedule: Q01DX009 (ip), vehicle: Klucel (hydroxypropylcellulose) (HPC)) 95 % of control; (dose: 3.12 mg/kg/injection, schedule: Q01DX009 (ip), vehicle: Klucel (hydroxypropylcellulose) (HPC)) 101 % of control; (dose: 6.25 mg/kg/injection, schedule: Q01DX009 (ip), vehicle: Klucel (hydroxypropylcellulose) (HPC)) 96 % of control; (dose: 12.5 mg/kg/injection, schedule: Q01DX009 (ip), vehicle: Klucel (hydroxypropylcellulose) (HPC)) 98 % of control.

For the compound `CCC/C=C/C=C/C(=O)OC1/C(=C/C(=O)OC)CC2CC(C(C)O)OC(=O)CC(O)CC3CC(OC(C)=O)C(C)(C)C(O)(CC4C/C(=C/C(=O)OC)CC(/C=C/C(C)(C)C1(O)O2)O4)O3` (stereo unspecified), the T/C by setting is: (dose: 20.0 micrograms/kg/injection, schedule: Q01DX009 (ip), vehicle: saline + Tween-80 + alcohol) 158 % of control; (dose: 40.0 micrograms/kg/injection, schedule: Q01DX009 (ip), vehicle: saline + Tween-80 + alcohol) 168 % of control; (dose: 80.0 micrograms/kg/injection, schedule: Q01DX009 (ip), vehicle: saline + Tween-80 + alcohol) 160 % of control.

Regarding `COc1cc(NCc2ccc3nc(N)nc(N)c3c2C)cc(OC)c1OC` (tested in a mixture with another compound), the T/C reads like this: (dose: 10.0 mg/kg/injection, schedule: Q04DX005 (ip), vehicle: water) 108 % of control; (dose: 40.0 mg/kg/injection, schedule: Q04DX005 (ip), vehicle: water) 120 % of control.

Take `O=P1(N(CCCl)CCCl)NCCCO1` (stereo unspecified): where the note is “dose: 10.0 mg/kg/injection, schedule: Q04DX005 (ip), vehicle: saline”, the T/C is 180 % of control.

As to `CC[C@]1(O)C[C@H]2CN(CCc3c([nH]c4ccccc34)[C@@](C(=O)OC)(c3cc4c(cc3OC)N(C=O)[C@H]3[C@@](O)(C(=O)OC)[C@H](OC(C)=O)[C@]5(CC)C=CCN6CC[C@]43[C@@H]65)C2)C1`, the T/C is 112 % of control and 124 % of control (dose: 0.25 mg/kg/injection, schedule: Q04DX005 (ip), vehicle: saline); 164 % of control under setting [1]; 228 % of control and 156 % of control under setting [2].

With `COC1CC(C)C(OC)C2=CC(=O)C=C(NC(=O)/C(C)=C/C=C\C(C)C(OC(N)=O)/C(C)=C\C(C)C1OC)C2=O` (stereo unspecified), the T/C (dose: 6.25 mg/kg/injection, schedule: Q04DX004 (ip), vehicle: saline + Tween-80 + alcohol) is 124 % of control and the T/C (dose: 12.5 mg/kg/injection, schedule: Q04DX004 (ip), vehicle: saline + Tween-80 + alcohol) is 124 % of control.
